Test results as given in patent publication US8575156B2, “Cyclic inhibitors of 11β-hydroxysteroid dehydrogenase 1” (Vitae Pharmaceuticals, Inc., priority 2007, dated 2013).

Target: 11β-HSD1 (Homo sapiens, UniProt P28845)
Experiment: biochemical
Settings: for IC50: IC50 Range, Biological Test Example 1, microsomes from CHO cells overexpressing human 11β-HSD1; for inhibition at 0.1 µM: read-out: Average % inhibition at 100 nM, Biological Test Example 1, 100 nM

11β-HSD1, sequence (P28845 whole entry): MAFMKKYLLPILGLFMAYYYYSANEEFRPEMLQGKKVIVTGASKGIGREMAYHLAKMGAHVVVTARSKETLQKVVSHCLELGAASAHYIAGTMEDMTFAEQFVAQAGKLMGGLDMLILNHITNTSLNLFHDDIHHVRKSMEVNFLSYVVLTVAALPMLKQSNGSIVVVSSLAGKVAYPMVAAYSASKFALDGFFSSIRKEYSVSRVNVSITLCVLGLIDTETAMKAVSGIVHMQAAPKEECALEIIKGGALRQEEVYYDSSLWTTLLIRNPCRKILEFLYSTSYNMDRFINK

Structure (SMILES): CC[C@@H](c1ccc(Br)cc1)N1CC[C@](CCC(N)=O)(c2ccccc2)OC1=O [EXAMPLE 398, 3-((R)-3-((S)-1-(4-bromophenyl)propyl)-2-oxo-6-phenyl-1,3-oxazinan-6-yl)propanamide]
- IC50: < 100 nM
- inhibition at 0.1 µM: 97.7%

Structure (SMILES): C[C@@H](c1ccc(C(F)(F)F)cc1)N1CC[C@](CCO)(c2ccccc2)OC1=O [EXAMPLE 399, (S)-6-(2-hydroxyethyl)-6-phenyl-3-((S)-1-(4-(trifluoromethyl)phenyl)ethyl)-1,3-oxazinan-2-one]
- IC50: < 100 nM
- inhibition at 0.1 µM: 97.9%

Structure (SMILES): C[C@@H](c1ccc(C(F)(F)F)cc1)N1CC[C@](CC(C)(C)O)(c2ccccc2)OC1=O [EXAMPLE 400, (S)-6-(2-hydroxy-2-methylpropyl)-6-phenyl-3-((S)-1-(4-(trifluoromethyl)phenyl)ethyl)-1,3-oxazinan-2-one]
- IC50: < 100 nM
- inhibition at 0.1 µM: 96.8%

Structure (SMILES): C[C@@H](c1ccc(Cl)cc1)N1CC[C@](CCO)(c2ccccc2)OC1=O [EXAMPLE 401, (S)-3-((S)-1-(4-chlorophenyl)ethyl)-6-(2-hydroxyethyl)-6-phenyl-1,3-oxazinan-2-one]
- IC50: < 100 nM
- inhibition at 0.1 µM: 98.6%

Structure (SMILES): C[C@@H](c1ccc(Cl)cc1)N1CC[C@](CC(C)(C)O)(c2ccccc2)OC1=O [EXAMPLE 402, (S)-3-((S)-1-(4-chlorophenyl)ethyl)-6-(2-hydroxy-2-methylpropyl)-6-phenyl-1,3-oxazinan-2-one]
- IC50: < 100 nM
- inhibition at 0.1 µM: 96.8%

Structure (SMILES): C[C@@H](c1ccc(Cl)cc1)N1CC[C@](CCCO)(c2ccccc2)OC1=O [EXAMPLE 403, (R)-3-((S)-1-(4-chlorophenyl)ethyl)-6-(3-hydroxypropyl)-6-phenyl-1,3-oxazinan-2-one]
- IC50: < 100 nM
- inhibition at 0.1 µM: 99.5%

Structure (SMILES): C[C@@H](c1ccc(Cl)cc1)N1CC[C@](CCCNS(C)(=O)=O)(c2ccccc2)OC1=O [EXAMPLE 404, N-(3-((R)-3-((S)-1-(4-chlorophenyl)ethyl)-2-oxo-6-phenyl-1,3-oxazinan-6-yl)propyl)methanesulfonamide]
- IC50: < 100 nM
- inhibition at 0.1 µM: 91.2%

Structure (SMILES): C[C@@H](c1ccc(F)cc1)N1CC[C@](CCO)(c2ccc(F)cc2)OC1=O [EXAMPLE 406, (S)-6-(4-fluorophenyl)-3-((S)-1-(4-fluorophenyl)ethyl)-6-(2-hydroxyethyl)-1,3-oxazinan-2-one]
- IC50: < 100 nM
- inhibition at 0.1 µM: 86.4%

Structure (SMILES): C[C@@H](c1ccc(F)cc1)N1CC[C@](CC(C)(C)O)(c2ccc(F)cc2)OC1=O [EXAMPLE 407, (S)-6-(4-fluorophenyl)-3-((S)-1-(4-fluorophenyl)ethyl)-6-(2-hydroxy-2-methylpropyl)-1,3-oxazinan-2-one]
- IC50: < 100 nM
- inhibition at 0.1 µM: 94.7%

Structure (SMILES): CC(O)C[C@]1(c2ccc(F)cc2)CCN([C@@H](C)c2ccc(F)cc2)C(=O)O1 (stereo partly drawn) [EXAMPLE 408, (6S)-6-(4-fluorophenyl)-3-((S)-1-(4-fluorophenyl)ethyl)-6-(2-hydroxypropyl)-1,3-oxazinan-2-one]
- IC50: < 100 nM
- inhibition at 0.1 µM: 90.2%

Structure (SMILES): C[C@@H](c1ccc(F)cc1)N1CC[C@](CCCNS(C)(=O)=O)(c2ccc(F)cc2)OC1=O [EXAMPLE 409, N-(3-((R)-6-(4-fluorophenyl)-3-((S)-1-(4-fluorophenyl)ethyl)-2-oxo-1,3-oxazinan-6-yl)propyl)methanesulfonamide]
- IC50: < 100 nM
- inhibition at 0.1 µM: 91.6%

Structure (SMILES): C[C@@H](c1ccc(F)cc1)N1CC[C@](CCC(C)(C)O)(c2ccc(F)cc2)OC1=O [EXAMPLE 410, (R)-6-(4-fluorophenyl)-3-((S)-1-(4-fluorophenyl)ethyl)-6-(3-hydroxy-3-methylbutyl)-1,3-oxazinan-2-one]
- IC50: < 100 nM
- inhibition at 0.1 µM: 52%

Structure (SMILES): C[C@@H](c1ccc(F)cc1)N1CC[C@](CCO)(c2ccccc2)OC1=O [EXAMPLE 412, (S)-3-((S)-1-(4-fluorophenyl)ethyl)-6-(2-hydroxyethyl)-6-phenyl-1,3-oxazinan-2-one]
- IC50: < 100 nM
- inhibition at 0.1 µM: 94.7%
